Experimental data reported in patent US5637731A (priority 1996, dated 1997).
“And” between values parts separate entries of the source, which are not always exact repeats. Identical values can stand only once. Counter-ions that a name gives are not always drawn. Like-named read-outs stand apart in the source and are kept apart here.

Legend:
[1] = target: muscarinic cholinergic receptor; assay type: binding, rat; details: rat cerebral cortex, ^3 H-QNB 0.25 nM, 25° C., 120 minutes, pH 7.4
[2] = target: muscarinic cholinergic receptor; test: [^3 H]-Cis-methyldioxolane (^3 H-CD) Binding Assay (High Affinity); details: rat cerebral cortex, ^3 H-CD 1.0 nM, 25° C., 120 minutes, pH 7.4; high affinity agonist binding

CCN(CC)CC#CCN1CCC(C)C1=O (racemic) [Racemic 1-[4-(1-Diethylamino)-2-butynyl]-3-methyl-2-pyrrolidinone]
Ki [1]: 6000 nM
Ki [2]: 5100 nM

CC1CCN(CC#CCN(C)C)C1=O (racemic) [Racemic 1-[4-(1-Dimethylamino)-2-butynyl]-3-methyl-2-pyrrolidinone]
Ki [1]: 21000 nM
Ki [2]: 410 nM

CC1CCN(CC#CCN2CCC2)C1=O (racemic) [Racemic 1-[4-(1-azetidinyl)-2-butynyl-3-methyl-2-pyrrolidinone, Racemic 1-[4-(1-azetidinyl)-2-butynyl]-3-methyl-2-pyrrolidinone]
Ki [1]: 2000 nM
Ki [2]: 54 nM

CC1CCN(CC#CCn2ccnc2)C1=O (racemic) [Racemic 1-[4-(1H-imidazol-1-yl)-2-butynyl]-3-methyl-2-pyrrolidinone]
Ki [1]: 6700 nM
Ki [2]: 57 nM

CN(C)CC#CCN1CCC(C)(O)C1=O (racemic) [Racemic-1-[4-Dimethylamino)-2-butynyl]-3-hydroxy-3-methyl-2-pyrrolidinone, Racemic 1-[4-(Dimethylamino)-2-butynyl]-3-hydroxy-3-methyl-2-pyrrolidinone]
Ki [1]: > 100000 nM
Ki [2]: > 100000 nM

CC1(O)CCN(CC#CCN2CCCC2)C1=O (racemic) [Racemic-3-Hydroxy-3-methyl-1-[4-(1-pyrrolidinyl)-2-butynyl]-2-pyrrolidinone, Racemic 3-hydroxy-3-methyl-1-[4-(1-pyrrolidinyl) 2-butynyl]-2-pyrrolidinone]
Ki [1]: 8600 nM
Ki [2]: 5700 nM

O=C1C(O)CCN1CC#CCn1ccnc1 (stereo not shown) [1-[4-(1H-Imidazol-1-yl)-2-butynyl]-3-hydroxy-2-pyrrolidinone]
Ki [1]: > 100000 nM
Ki [2]: 2000 nM

O=C(NCC#CCN1CCCC1)C(F)(F)F [2,2,2-Trifluoro-N-[4-(1-pyrrolidinyl)-2-butynyl]acetamide monohydrochloride]
Ki [1]: 18500 nM
Ki [2]: 8880 nM

NCC#CCN1CCCC1 [4-(1-Pyrrolidinyl)-2-butyn-1-amine dihydrochloride]
Ki [1]: > 100000 nM
Ki [2]: 13000 nM

CC(C)(C)[Si](C)(C)O[C@@H]1CCN(CC#CCN2CCC2)C1=O [(R)-1-[4-(1-Azetidinyl)-2-butynyl]-3-[[(1,1-dimethylethyl)dimethylsilyl]oxy]-2-pyrrolidinone]
Ki [1]: > 100000 nM
Ki [2]: > 100000 nM

CS[C@@H]1CCN(CC#CCN(C)C)C1=O [(R)-1-[4-(Dimethylamino)-2-butynyl]-3-(methylthio)-2-pyrrolidinone]
Ki [1]: 108000 nM
Ki [2]: 6100 nM

C[C@@H]1CCN(CC#CCN(C)C)C1=O [(R)-1-[4-(Dimethylamino)-2-butynyl]-3-methyl-2-pyrrolidinone]
Ki [1]: 7700 nM
Ki [2]: 73 nM

CN(C)CC#CCN1CC[C@@H](O)C1=O [(R)-1-[4-Dimethylamino)-2-butynyl-3-hydroxy-2-pyrrolidinone]
Ki [1]: 105000 nM
Ki [2]: 540 nM

CN(C)CC#CCN1CC[C@@H](OC(=O)C(C)(C)C)C1=O [(R)-2,2-Dimethylpropanoic acid 1-[4-(dimethylamino)-2-butynyl]-2-oxo-3-pyrrolidinyl ester]
Ki [1]: 404000 nM

CC(C)(C)C(=O)O[C@@H]1CCN(CC#CCN2CCCC2)C1=O [(R)-2,2-Dimethylpropanoic acid 2-oxo-1-[4-(1-pyrrolidinyl)-2-butynyl]-3-pyrrolidinyl ester]
Ki [1]: 10200 nM
Ki [2]: 500 nM

CC(C)C(=O)O[C@@H]1CCN(CC#CCN2CCCC2)C1=O [(R)-2-Methylpropanoic acid 2-oxo-1-[4-(1-pyrrolidinyl)-2-butynyl]-3-pyrrolidinyl ester]
Ki [1]: 87000 nM
Ki [2]: 135 nM

CC(=O)O[C@@H]1CCN(CC#CCN(C)CCO)C1=O [(R)-3-(Acetyloxy)-1-[4-[2-(hydroxyethyl)methylamino]-2-butynyl]-2-pyrrolidinone]
Ki [1]: > 100000 nM
Ki [2]: 28300 nM

CS[C@@H]1CCN(CC#CCN2CCCC2)C1=O [(R)-3-(Methylthio)-1-[4-(1-pyrrolidinyl)-2-butynyl]-2-pyrrolidinone]
Ki [1]: 3600 nM
Ki [2]: 1400 nM

N[C@@H]1CCN(CC#CCN2CCCC2)C1=O [(R)-3-Amino-1-[4-(1-pyrrolidinyl)-2-butynyl]-2-pyrrolidinone dihydrochloride]
Ki [1]: 6100 nM
Ki [2]: 350 nM

CN(C)CC#CCN1CC[C@@H](N)C1=O [(R)-3-Amino-1-[4-(dimethylamino)-2-butynyl]-2-pyrrolidinone dihydrochloride]
Ki [1]: > 100000 nM
Ki [2]: 890 nM

[N-]=[N+]=N[C@@H]1CCN(CC#CCN2CCCC2)C1=O [(R)-3-Azido-1-[4-(1-pyrrolidinyl)-2-butynyl]-2-pyrrolidinone]
Ki [1]: 28000 nM
Ki [2]: 210 nM

CN(C)CC#CCN1CC[C@@H](N=[N+]=[N-])C1=O [(R)-3-Azido-1-[4-(dimethylamino)-2-butynyl]-2-pyrrolidinone]
Ki [1]: > 100000 nM
Ki [2]: 500 nM

O=C1[C@H](O)CCN1CC#CCN1CCCC1 [(R)-3-Hydroxy-1-[4-(1-pyrrolidinyl)-2-butynyl]-2-pyrrolidinone]
Ki [1]: 3400 nM
Ki [2]: 125 nM

CN(CC#CCN1CC[C@@H](O)C1=O)CCO [(R)-3-Hydroxy-1-[4-[(2-hydroxyethyl)methylamino]-2-butynyl]-2-pyrrolidinone]
Ki [1]: > 100000 nM
Ki [2]: 1800 nM

CN(CC#CCN1CC[C@@H](O)C1=O)CCCCO [(R)-3-Hydroxy-1-[4-[(4-hydroxybutyl)methylamino]-2-butynyl]-2-pyrrolidinone]
Ki [1]: > 100000 nM
Ki [2]: 1450 nM

CC(C)(C)C(=O)O[C@@H]1CCN(CC#CC[N+](C)(C)C)C1=O [(R)-3-[3-(2,2-Dimethyl-1-oxopropoxy)-2-oxo-1-pyrrolidinyl]-N,N, N-trimethyl-2-butyn-1-aminium iodide]
Ki [1]: > 100000 nM
Ki [2]: 1220 nM

CC(C)(C)[Si](C)(C)O[C@@H]1CCN(CC#CCn2ccnc2)C1=O [(R)-3-[[(1,1-Dimethylethyl)-dimethylsilyl]oxy]-1-[4-(1H-imidazol-1-yl)-2-butynyl]-2-pyrrolidinone]
Ki [1]: > 100000 nM
Ki [2]: 14000 nM

C[N+](C)(C)CC#CCN1CC[C@@H](N=[N+]=[N-])C1=O [(R)-4-(3-Azido-2-oxo-1-pyrrolidinyl)-N,N,N-trimethyl-2-butyn-1-aminium iodide]
Ki [1]: 800 nM
Ki [2]: 39 nM

CCCCCCCCCC(=O)O[C@@H]1CCN(CC#CC[N+](C)(C)C)C1=O [(R)-4-[2-Oxo-3-[(1-oxodecyl)-oxy]-1-pyrrolidinyl]-N,N, N-trimethyl-2-butyn-1-aminium iodide]
Ki [1]: 200 nM
Ki [2]: 50 nM

COC(=O)O[C@@H]1CCN(CC#CCN(C)C)C1=O [(R)-Carbonic acid 1-[4-(dimethylamino)-2-butynyl]-2-oxo-3-pyrrolidinyl methyl ester monohydrochloride]
Ki [1]: 52000 nM
Ki [2]: 3070 nM

CCCCCCCCOC(=O)O[C@@H]1CCN(CC#CCN(C)C)C1=O [(R)-Carbonic acid 1-[4-(dimethylamino)-2-butynyl]-2-oxo-3-pyrrolidinyl octyl ester]
Ki [1]: 1500 nM
Ki [2]: 1040 nM

O=C(OCc1ccccc1)O[C@@H]1CCN(CC#CCN2CCCC2)C1=O [(R)-Carbonic acid 2-oxo-1-[4-(1-pyrrolidinyl)-2-butynyl]-3-pyrrolidinyl phenylmethyl ester]
Ki [1]: 1400 nM
Ki [2]: 110 nM

COC(=O)O[C@@H]1CCN(CC#CCN2CCCC2)C1=O [(R)-Carbonic acid methyl 2-oxo-1-[4-(1-pyrrolidinyl)-2-butynyl]-3-pyrrolidinyl ester]
Ki [1]: 27300 nM
Ki [2]: 350 nM

CCCCCCCCOC(=O)O[C@@H]1CCN(CC#CCN2CCCC2)C1=O [(R)-Carbonic acid octyl 2-oxo-1-[4-(1-pyrrolidinyl)-2-butynyl]-3-pyrrolidinyl ester]
Ki [1]: 100 nM
Ki [2]: 76 nM

CCCCCCCCCC(=O)O[C@@H]1CCN(CC#CCN(C)C)C1=O [(R)-Decanoic acid 1-[4-(dimethylamino)-2-butynyl]-2-oxo-3-pyrrolidinyl ester]
Ki [1]: > 100000 nM
Ki [2]: 730 nM

CCCCCCCCCC(=O)O[C@@H]1CCN(CC#CCN2CCCC2)C1=O [(R)-Decanoic acid 2-oxo-1-[4-(1-pyrrolidinyl)-2-butynyl]-3-pyrrolidinyl ester]
Ki [1]: 200 nM
Ki [2]: 97 nM

CC(C)C(=O)O[C@@H]1CCN(CC#CC[N+](C)(C)C)C1=O [(R)-N,N, N-Trimethyl-4-[3-(2-methyl-1-oxopropoxy)-2-oxo-1-pyrrolidinyl]-2-butyn-1 aminium iodide]
Ki [1]: 45000 nM
Ki [2]: 240 nM

CCCCCCCCNC(=O)O[C@@H]1CCN(CC#CC[N+](C)(C)C)C1=O [(R)-N,N, N-Trimethyl-4-[3-[[(octylamino)carbonyl]oxy]-2-oxo-1-pyrrolidinyl]-2-butyn-1-aminium iodide]
Ki [1]: 500 nM
Ki [2]: 490 nM

CCCCCCCCOC(=O)O[C@@H]1CCN(CC#CC[N+](C)(C)C)C1=O [(R)-N,N, N-Trimethyl-4-[3-[[(octyloxy)carbonyl]oxy]-2-oxo-1-pyrrolidinyl]-2-butyn-1-aminium iodide]
Ki [1]: 200 nM
Ki [2]: 10 nM

CCCCCCCCNC(=O)O[C@@H]1CCN(CC#CCN(C)C)C1=O [(R)-Octylcarbamic acid 1-[4-(dimethylamino)-2-butynyl]-2-oxo-2-pyrrolidinyl ester]
Ki [1]: 32000 nM
Ki [2]: 1430 nM

CCCCCCCCNC(=O)O[C@@H]1CCN(CC#CCN2CCCC2)C1=O [(R)-Octylcarbamic acid 2-oxo-1-[4-(1-pyrrolidinyl)-2-butynyl]-3-pyrrolidinyl ester]
Ki [1]: 200 nM
Ki [2]: 240 nM

CC(C)C(=O)O[C@@H]1CCN(CC#CCN(C)C)C1=O [(R)-Porpanoic acid 2-methyl-1-[4-(dimethylamino)-2-butynyl]-2-oxo-3-pyrrolidinyl ester]
Ki [1]: 711000 nM
Ki [2]: 26000 nM

CC(C)C(=O)O[C@H]1CCN(CC#CCN(C)C)C1=O [(S)-2-Methylpropanoic acid 1-[4-(dimethylamino)-2-butynyl]-2-oxo-3-pyrrolidinyl ester]
Ki [1]: 610000 nM

COC(=O)O[C@H]1CCN(CC#CCN2CCCC2)C1=O [(S)-Carbonic acid methyl 2-oxo-1-[4-(1-pyrrolidinyl)-2-butynyl]-3-pyrrolidinyl ester]
Ki [1]: 5400 nM and 10400 nM
